Here are results for four compounds from the NIST ThermoML archive (doi:10.1016/j.jct.2011.11.027).

Numbers after ± are expanded uncertainties.

As a reminder, the mass density is the mass of a sample divided by its volume. The term refractive index denotes a measure of how strongly the sample bends light.

For data set [1] the following is noted: 298.15 K; 101.33 kPa; Liquid; Vibrating tube method.
The nature of data set [2]: refractive index (Na D-line) (dimensionless). Particulars: 298.15 K; 101.33 kPa; Liquid; Standard Abbe refractometry.
Data set [3] in a line: wn = mass fraction of the nth substance listed. As to conditions: 298.15 K, 101 kPa, Liquid, Vibrating tube method.

For `CCCC[N+]1(C)CCCC1.O=S(=O)([N-]S(=O)(=O)C(F)(F)F)C(F)(F)F`, in data set [1], the mass density is recorded as 1394.66 ± 0.58 kg/m3. Further, the refractive index in data set [2] stood at 1.42302 ± 0.00042.

As to `CCCC[N+]1(C)CCCC1.O=S(=O)([O-])C(F)(F)F` [1-butyl-1-methylpyrrolidinium trifluoromethanesulfonate], the mass density in data set [1] is reported as 1252.71 ± 0.45 kg/m3. In addition, the refractive index in data set [2] was found to be 1.43287 ± 0.00042.

In the case of `C1CCCCC1` [cyclohexane] + CCCCCCC, the mass density in data set [3] (w2 = 0) was 773.88 ± 0.13 kg/m3; in data set [3] (w2 = 0.0503) it was 766.95 ± 0.14 kg/m3; in data set [3] (w2 = 0.0991), 760.53 ± 0.14 kg/m3; in data set [3] (w2 = 0.2021), 748.16 ± 0.14 kg/m3; in data set [3] (w2 = 0.3118), 735.69 ± 0.15 kg/m3; in data set [3] (w2 = 0.3926) it was 726.61 ± 0.15 kg/m3. Also, the mass density is recorded as 717.21 ± 0.16 kg/m3 in data set [3] (w2 = 0.5039); 703.79 ± 0.16 kg/m3 in data set [3] (w2 = 0.666); 700.61 ± 0.17 kg/m3 in data set [3] (w2 = 0.7062); 692.71 ± 0.17 kg/m3 in data set [3] (w2 = 0.8061); 685.62 ± 0.18 kg/m3 in data set [3] (w2 = 0.9061); 682.6 ± 0.18 kg/m3 in data set [3] (w2 = 0.9539).

Take `CCCCCCC` [heptane] + C1CCCCC1: in data set [3] (w1 = 1), the mass density came to 679.57 ± 0.18 kg/m3.
